Among the test systems are ACHN; EKVX; HOP-18; HOP-62; KM12; Malme-3M; NCI-H23; OVCAR-3; OVCAR-4; SF-539; SK-MEL-5; SK-OV-3; SN12C; SNB-19; SR; U-251; UACC-62; RXF 393; DU-145; T47D.
Holding throughout (assay): NCI-60 cell line screen, 48 h

The source of these data is ChEMBL document CHEMBL1201862, “PubChem BioAssay data set” (2004).

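Values below derive from 48-hour exposures of cells grown in 96-well plates, with endpoints linearly interpolated between the two concentrations bracketing the appropriate inhibition level. GI50 is the concentration that inhibits growth by half.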 Active and inactive are the calls of the source. Cut-off read from the data, not from the text of the source: active = GI50 up to about 1.1 µM and inactive = higher. Bounds are passed on as bounds.

`CCCN(CCC)c1c([N+](=O)[O-])cc(S(N)(=O)=O)cc1[N+](=O)[O-]` [ORYZALIN]: the GI50 in the test with ACHN is 17.9 µM (inactive); with EKVX it was 21.3 µM (inactive); in the test on HOP-18 it was 19.2 µM (inactive); in the test with HOP-62 it was 17.2 µM (inactive); in the test on KM12 it was 17.8 µM (inactive); in the test on Malme-3M it was 17.7 µM (inactive). Moreover, the GI50 is 16.1 µM (inactive) with NCI-H23; 16.9 µM (inactive) in the test on OVCAR-3; 14 µM (inactive) in the test with OVCAR-4; 19.7 µM (inactive) with SF-539; 19.3 µM (inactive) with SK-MEL-5; 17.4 µM (inactive) in the test on SK-OV-3. The GI50 with SN12C was 17.4 µM (inactive); with SNB-19, 19.7 µM (inactive); in the test with SR, 23.5 µM (inactive); in the test with U-251, 12 µM (inactive); in the test on UACC-62, 18.3 µM (inactive).

For `O=C1c2cccc([N+](=O)[O-])c2C(=O)c2nccnc21`, the GI50 was 3.19 µM (inactive) in the test on ACHN; 1.81 µM (inactive) in the test with EKVX; 1.69 µM (inactive) in the test on HOP-18; 1.63 µM (inactive) in the test with Malme-3M; 1.25 µM (inactive) in the test with NCI-H23; 1.87 µM (inactive) in the test on OVCAR-3. For the same molecule, the GI50 with OVCAR-4 was 1.42 µM (inactive); in the test with RXF 393 it was 1.95 µM (inactive); in the test with SF-539, 1.47 µM (inactive); with SK-MEL-5 it was 0.25 µM (active); with SN12C, 1.66 µM (inactive); in the test on SNB-19 it was 1.69 µM (inactive). For the same molecule, the figures for the GI50 with SR, with U-251 and in the test with UACC-62 were 2.05 µM (inactive), 1.4 µM (inactive) and 1.32 µM (inactive), respectively.

On to `Oc1ccc2occ3c2c1CCC3`, for which the GI50 was > 100 µM (inactive) with ACHN; 72.6 µM (inactive) in the test on EKVX; > 100 µM (inactive) in the test on HOP-18; > 100 µM (inactive) with HOP-62; > 100 µM (inactive) in the test with NCI-H23; 64.1 µM (inactive) in the test on OVCAR-3. Moreover, the GI50 with OVCAR-4 is > 100 µM (inactive); in the test on RXF 393, 75.2 µM (inactive); in the test with SF-539, > 100 µM (inactive); with SK-MEL-5, > 100 µM (inactive); in the test on SK-OV-3 it was > 100 µM (inactive); with SN12C, > 100 µM (inactive). The GI50 in the test on SNB-19 was > 100 µM (inactive); in the test with U-251 it was > 100 µM (inactive); in the test with UACC-62 it was 95.9 µM (inactive).

In the case of `O=C(O)c1ccc(C2C(=O)N[C@@H]3CCC[C@H]23)cc1` (some centres not stated), the GI50 with EKVX, with HOP-18, with HOP-62, with KM12, in the test with Malme-3M and in the test on NCI-H23 was > 100 µM (inactive) each time. In addition, the GI50 in the test on OVCAR-3, in the test on OVCAR-4, with RXF 393, with SF-539, in the test with SK-MEL-5 and with SK-OV-3 was > 100 µM (inactive) each time. The GI50 in the test on SNB-19, with U-251 and in the test on UACC-62 was > 100 µM (inactive) in each case.

`COc1ccccc1/C=C(\NC(=O)c1ccccc1)c1nc2ccccc2[nH]1`: the GI50 in the test with ACHN was 36.6 µM (inactive); in the test with EKVX, 34.7 µM (inactive); in the test on HOP-18, 46.3 µM (inactive); with KM12, 32.6 µM (inactive); in the test with Malme-3M, 95.7 µM (inactive); with NCI-H23, 33.2 µM (inactive). Further, the GI50 with OVCAR-3 was 44.5 µM (inactive); in the test with OVCAR-4 it was 35 µM (inactive); in the test with RXF 393, 76.6 µM (inactive); with SF-539, 53.7 µM (inactive); with SK-MEL-5, 23.3 µM (inactive); in the test with SK-OV-3 it was 51.1 µM (inactive). Also, the GI50 in the test with SN12C was 48.8 µM (inactive); in the test on SNB-19, 34 µM (inactive); in the test on U-251 it was 47.2 µM (inactive); in the test with UACC-62, 45 µM (inactive).

Take `Cc1c[nH]c2c1C13CC1CN(C(=O)c1cc4cc(NC(=O)c5cc6ccccc6o5)ccc4[nH]1)C3=CC2=O` (configuration not stated): the GI50 in the test on ACHN, with HOP-18, in the test on HOP-62, with KM12, in the test on Malme-3M and in the test with NCI-H23 was < 0.001 µM (active) throughout. For the same molecule, the GI50 in the test with OVCAR-4, in the test on RXF 393, with SF-539, with SK-MEL-5, with SN12C and with SNB-19 was < 0.001 µM (active) each time. Besides, the GI50 with SR, in the test on U-251 and in the test with UACC-62 was < 0.001 µM (active) each time.

Regarding `CCOC(=O)C1=C(Nc2ccc(Cl)c(Cl)c2)OC/C1=N\NS(=O)(=O)c1ccc(C)cc1`, the GI50 in the test on EKVX is 58.1 µM (inactive); with HOP-18, 27.5 µM (inactive); in the test with HOP-62, 36.7 µM (inactive); in the test with KM12, 39.5 µM (inactive); in the test on Malme-3M it was 67.8 µM (inactive); in the test on NCI-H23, 34.7 µM (inactive). Moreover, the GI50 is 49.5 µM (inactive) with OVCAR-3; 63.5 µM (inactive) in the test with OVCAR-4; 67.9 µM (inactive) with RXF 393; 37.5 µM (inactive) with SF-539; 42.9 µM (inactive) in the test on SK-MEL-5; 75.7 µM (inactive) in the test with SK-OV-3. In addition, the GI50 in the test on SN12C was 57.8 µM (inactive); in the test on SNB-19, 59 µM (inactive); in the test with U-251 it was 66.5 µM (inactive); in the test with UACC-62, 39.4 µM (inactive).

As to `O=C1c2ccccc2-[n+]2ccc3c([nH]c4ccccc43)c21` [FASCAPLYSIN CHLORIDE], the GI50 with ACHN was 0.557 µM (active); with DU-145, 1.15 µM (inactive); in the test with EKVX, 0.274 µM (active); in the test on HOP-62, 1.14 µM (inactive); in the test on KM12, 0.18 µM (active); in the test on Malme-3M, 0.0586 µM (active). Further, the GI50 was 0.31 µM (active) with NCI-H23; 0.145 µM (active) in the test with OVCAR-3; 0.628 µM (active) in the test with OVCAR-4; 0.384 µM (active) in the test with RXF 393; 0.349 µM (active) in the test on SF-539; 0.14 µM (active) in the test with SK-MEL-5. In addition, the GI50 was 1.56 µM (inactive) with SK-OV-3; 0.231 µM (active) in the test with SN12C; 0.615 µM (active) with SNB-19; 0.132 µM (active) with SR; 0.755 µM (active) with T47D; 0.274 µM (active) in the test on U-251. Also, the GI50 in the test with UACC-62 is 0.242 µM (active).

Consider `COc1ccc(C2c3c(-c4ccccc4)nn(-c4ccccc4)c3Oc3ncn(N)c(=N)c32)cc1OC` (configuration not stated), for which the GI50 in the test on ACHN was 1.86 µM (inactive); in the test with DU-145 it was 2.89 µM (inactive); in the test on EKVX, 1.91 µM (inactive); with HOP-62 it was 1.77 µM (inactive); with KM12, 1.83 µM (inactive); in the test on Malme-3M, 1.6 µM (inactive). Further, the GI50 in the test on NCI-H23 was 2.54 µM (inactive); in the test on OVCAR-3, 1.63 µM (inactive); in the test on OVCAR-4, 2.45 µM (inactive); in the test with RXF 393, 1.84 µM (inactive); in the test on SF-539, 1.69 µM (inactive); in the test on SK-MEL-5, 1.94 µM (inactive). Moreover, the GI50 in the test with SK-OV-3 was 6.53 µM (inactive); with SN12C, 2.51 µM (inactive); with SNB-19 it was 2.83 µM (inactive); with SR, 3.53 µM (inactive); in the test on T47D it was 1.97 µM (inactive); with U-251 it was 4.53 µM (inactive). In the test on UACC-62, the GI50 is 1.92 µM (inactive).

On to `CCOC(=O)CCC(NC(=O)c1ccc(OCc2ccc3nc(-c4ccccc4)c(Cl)nc3c2)cc1)C(=O)OCC` (configuration not stated), for which the GI50 was 26.9 µM (inactive) with ACHN; > 31.6 µM (inactive) in the test with DU-145; 19.9 µM (inactive) with EKVX; > 31.6 µM (inactive) in the test on HOP-62; > 31.6 µM (inactive) with KM12; > 100 µM (inactive) in the test on Malme-3M. Further, the GI50 in the test on NCI-H23 was 17.2 µM (inactive); with OVCAR-3, > 31.6 µM (inactive); with OVCAR-4, 16.4 µM (inactive); in the test with RXF 393, 2.08 µM (inactive); in the test with SF-539, 15.8 µM (inactive); in the test with SK-MEL-5, > 31.6 µM (inactive). In addition, the GI50 is 52.1 µM (inactive) in the test with SK-OV-3; > 100 µM (inactive) in the test on SN12C; 17.3 µM (inactive) in the test with SNB-19; 12.9 µM (inactive) in the test with SR; 16.6 µM (inactive) in the test with T47D; 18.4 µM (inactive) in the test on U-251. Further, the GI50 in the test on UACC-62 was > 31.6 µM (inactive).

Regarding `Cc1ccc(N2C(=O)C3C=CC(n4[nH]c(=O)n(Cc5ccccc5)c4=O)CC3C2=O)cc1` (configuration not stated), the GI50 in the test with ACHN, in the test on EKVX, with HOP-18, in the test with HOP-62, in the test with KM12 and in the test on Malme-3M was > 100 µM (inactive) in each case. The GI50 in the test on NCI-H23, in the test with OVCAR-3, in the test with RXF 393, in the test on SF-539, in the test on SK-MEL-5 and with SK-OV-3 was > 100 µM (inactive) in each case. Also, the GI50 in the test on SN12C, in the test on SNB-19, in the test on SR, with U-251 and with UACC-62 was > 100 µM (inactive) throughout.

As to `COc1ccc(/C=C/c2cc(=O)cc(/C=C/c3ccc(OC)c(O)c3)o2)cc1O`, the GI50 with ACHN was 2.48 µM (inactive); with DU-145, 2.92 µM (inactive); in the test with EKVX it was 4.52 µM (inactive); with HOP-62 it was 3.41 µM (inactive); in the test with KM12 it was 1.99 µM (inactive); in the test with Malme-3M, 2.16 µM (inactive). Also, the GI50 is 2.43 µM (inactive) with NCI-H23; 2.52 µM (inactive) in the test with OVCAR-3; 2.81 µM (inactive) in the test on OVCAR-4; 1.11 µM (active) with RXF 393; 1.98 µM (inactive) in the test on SF-539; 1.88 µM (inactive) with SK-MEL-5. The GI50 was 5.66 µM (inactive) in the test on SK-OV-3; 3.17 µM (inactive) in the test with SN12C; 4.84 µM (inactive) in the test on SNB-19; 1.02 µM (active) in the test with SR; 1.98 µM (inactive) with T47D; 1.94 µM (inactive) with U-251. Moreover, in the test on UACC-62, the GI50 was 1.75 µM (inactive).
